# Measurements from publication doi:10.1101/324947v3 (biorxiv, 2020).
# Experiments:
# [1] = target: T1, recombinant IDO1 (holo-IDO1; apo-IDO1) (Homo sapiens, UniProt P14902); test: NFK formation from D-TRP, Morrison tight binding fit; assay type: biochemical
# [2] = target: T1, recombinant IDO1 (holo-IDO1; apo-IDO1); test: intrinsic TRP fluorescence quenching, equilibrium titration; assay type: binding
# [3] = target: T1, recombinant IDO1 (holo-IDO1; apo-IDO1); test: fluorescence polarization competition against GSK1051; assay type: binding
# T1 sequence (P14902 whole entry): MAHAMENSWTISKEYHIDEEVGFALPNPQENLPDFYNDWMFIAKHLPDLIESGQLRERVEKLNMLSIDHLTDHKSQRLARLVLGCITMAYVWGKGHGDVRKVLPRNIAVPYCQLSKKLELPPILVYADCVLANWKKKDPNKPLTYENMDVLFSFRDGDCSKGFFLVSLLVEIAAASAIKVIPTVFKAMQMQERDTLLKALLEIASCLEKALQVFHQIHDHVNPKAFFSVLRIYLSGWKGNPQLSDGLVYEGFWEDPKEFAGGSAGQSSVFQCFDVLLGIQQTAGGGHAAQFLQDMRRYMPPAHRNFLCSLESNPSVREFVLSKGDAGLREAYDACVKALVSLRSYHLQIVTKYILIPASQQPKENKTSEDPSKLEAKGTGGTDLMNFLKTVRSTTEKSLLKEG
SMILES,Ki [1],Kd [2],IC50 [3]
CC(C)CN(CC(C)C)c1ccc([C@H](C)CC(=O)O)cc1Nc1nc(C(F)(F)F)ns1 [GSK5628],10 nM,2.1 nM,
C=CC1=C(C)C2=Cc3c(C=C)c(C)c4[n]3[Fe+][n]3c(c(C)c(CCC(=O)O)c3=CC3=NC(=C4)C(C)=C3CCC(=O)O)=CC1=N2 [heme],,,4.4 nM
